Measured values taken from US7223766B2, “Bi-cyclic pyrimidine inhibitors of TGFβ” (Scios, Inc., priority 2003, dated 2007).

Molecular target: T1, TGF R1 kinase (Homo sapiens, UniProt P36897)
T1 sequence (P36897 34-503): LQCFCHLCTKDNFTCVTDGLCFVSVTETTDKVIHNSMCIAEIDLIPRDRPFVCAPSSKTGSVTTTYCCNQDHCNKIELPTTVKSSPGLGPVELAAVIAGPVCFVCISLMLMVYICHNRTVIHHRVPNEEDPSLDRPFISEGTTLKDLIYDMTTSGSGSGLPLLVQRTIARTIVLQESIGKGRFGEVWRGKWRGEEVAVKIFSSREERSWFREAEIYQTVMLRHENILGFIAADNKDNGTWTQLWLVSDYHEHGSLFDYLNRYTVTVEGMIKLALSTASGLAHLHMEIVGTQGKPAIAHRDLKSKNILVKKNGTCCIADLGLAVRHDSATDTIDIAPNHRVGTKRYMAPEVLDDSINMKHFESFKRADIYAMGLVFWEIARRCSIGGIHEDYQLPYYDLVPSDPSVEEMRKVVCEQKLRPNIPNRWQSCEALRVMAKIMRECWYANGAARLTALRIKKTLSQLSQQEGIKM
Test: TGF-β inhibition assay: phosphorylation of the substrate casein by TGF R1 kinase
Type: biochemical
Settings: table names no assay; casein assay of Example 2: 2.5 μM ATP, 100 μM casein, 6.4 nM TGF R1 kinase
Method: Invention compounds were tested for their abilities to inhibit the phosphorylation of the substrate casein. The assay was conducted as follows: Compound dilutions and reagents were prepared fresh daily. Compounds were diluted from DMSO stock solutions to 2 times the desired assay concentration, keeping final DMSO concentration in the assay less than or equal to 1%. TGF RI kinase was diluted to 4 times the desired assay concentration in buffer and DTT. ATP and casein were diluted into 4× reaction buffer, and gamma-^32P-ATP was added at 50 μCi/mL.
The assay was performed by adding 10 μl of the enzyme to 20 μl of the compound solution. The reaction was initiated by the addition of 10 μl of the casein/ATP mix. Final assay conditions included 2.5 μM ATP, 100 μM casein, 6.4 nM TGF R1 kinase, and […] in 20 mM Tris buffer, pH 7.5. The reactions were incubated at room temperature for 45 minutes. The reactions were then stopped by transferring 23 μl of reaction mixture onto a phosphocellulose 96-well filter plate, which had been pre-wetted with 15 μl of 0.25M H3PO4 per well. After 5 minutes, the wells were washed 4× with 75 mM H3PO4 and once with 95% ethanol. The plate was dried, scintillation cocktail was added to each well, and the wells were counted in a Packard TopCount microplate scintillation counter. The ability of a compound to inhibit the enzyme was determined by comparing the counts obtained in the presence of the compound to those of the positive control (in the absence of compound) and the negative control (in the absence of enzyme).
In both of the assays referenced above, IC50 values can be determined with curve-fitting plots available with common software packages. Approximate IC50 values can be calculated using formula: IC50 (app)=A×i/(1−A) where A=fractional activity and i=total inhibitor concentration.

Compound	IC50
CN(C)CCCNC(=O)c1cnccc1Nc1nc(-c2cc(Cl)ccc2F)nc2c1CCC2 [Compound 69]	90.2 nM
Fc1ccccc1-c1cc(Nc2ccncn2)n2ncnc2n1 [Compound 83]	16900 nM
Cc1noc2nc(-c3cc(Br)ccc3F)nc(Nc3ccncc3)c12 [Compound 6]	270 nM
COC(=O)c1cnccc1Nc1nc(-c2ccccc2)nc2c1CCC2 [Compound 67]	8850 nM
CNCCNC(=O)c1cnccc1Nc1nc(-c2cc(Cl)ccc2F)nc2c1CCC2 [Compound 56]	365 nM
O=C(NCCN1CCCCC1)c1cnccc1Nc1nc(-c2cc(Cl)ccc2F)nc2c1CCC2 [Compound 78]	2460 nM
CCc1noc2nc(-c3cccc(Cl)c3)nc(Nc3ccncc3)c12 [Compound 7]	5070 nM
O=C(NCC1CC1)c1cnccc1Nc1nc(-c2cc(Cl)ccc2F)nc2c1CCC2 [Compound 42]	1330 nM
Cc1noc2nc(-c3ccccc3Cl)nc(Nc3ccncc3)c12 [Compound 14]	12800 nM
Cc1noc2nc(-c3ccccc3F)nc(Nc3ccncc3)c12 [Compound 12]	1380 nM
O=C(NCCCN1CCOCC1)c1cnccc1Nc1nc(-c2cc(Cl)ccc2F)nc2c1CCC2 [Compound 70]	529 nM
Cc1cnccc1Nc1nc(-c2cc(Cl)ccc2F)nc2c1C(C)CC2 (stereo not shown) [Compound 43, [2-(5-Chloro-2-fluorophenyl)-5-methyl-6,7-dihydro-5H-cyclopentapyrimidin-4-yl]-(3-methyl-pyridin-4-yl)-amine]	104 nM
CNC(=O)c1cnccc1Nc1nc(-c2cc(Cl)ccc2F)nc2c1C(C)CC2 (stereo not shown) [Compound 47, 4-[2-(5-Chloro-2-fluorophenyl)-5-methyl-6,7-dihydro-5H-cyclopentapyrimidin-4-ylamino]-N-methyl-nicotinamide]	14.5 nM
O=C(NC1CC1)c1cnccc1Nc1nc(-c2cc(Cl)ccc2F)nc2c1CCCC2 [Compound 45, 4-[2-(5-Chloro-2-fluorophenyl)-5,6,7,8-tetrahydroquinazolin-4-ylamino]-N-cyclopropyl nicotinamide]	683 nM
Cc1noc2nc(-c3cccc(I)c3)nc(Nc3ccncc3)c12 [Compound 10]	2440 nM
C[C@@H](O)CNC(=O)c1cnccc1Nc1nc(-c2cc(Cl)ccc2F)nc2c1CC(C)(C)C2 [Compound 64]	1810 nM
CNC(=O)c1cnccc1Nc1nc(-c2cc(Cl)ccc2F)nc2c1OCC2 [Compound 44, 4-[2-(5-Chloro-2-fluorophenyl)-6,7-dihydrofuro[3,2-d]pyrimidin-4-ylamino]-N-methyl nicotinamide]	148 nM
Cc1noc2nc(-c3cccc(Br)c3)nc(Nc3ccncc3)c12 [Compound 15]	1020 nM
O=C(NO)c1cnccc1Nc1nc(-c2cc(Cl)ccc2F)nc2c1CCC2 [Compound 54]	486 nM
Cc1cnccc1Nc1nc(-c2cc(Cl)ccc2F)nc2c1CN(Cc1ccccc1)CC2 [Compound 30]	16100 nM
NC(=O)c1cnccc1Nc1nc(-c2cc(Cl)ccc2F)nc2c1COC2 [Compound 34, 4-[2-(5-Chloro-2-fluoro-phenyl)-5,7-dihydro-furo[3,4-d]pyrimidin-4-ylamino]-nicotinic amide]	2250 nM
O=C(O)c1cnccc1Nc1nc(-c2cc(Cl)ccc2F)nc2c1CCCC2 [Compound 50, 4-[2-(5-Chloro-2-fluorophenyl)-5,6,7,8-tetrahydroquinazolin-4-ylamino]-nicotinic acid]	4080 nM
Cc1cnccc1Nc1nc(-c2cc(Cl)ccc2F)nn2cccc12 [Compound 80]	849 nM
CNC(=O)c1cnccc1Nc1nc(-c2cc(Cl)ccc2F)nc2c1CC(C)(C)C2 [Compound 63]	102 nM
CCc1noc2nc(-c3cc(Cl)ccc3F)nc(Nc3ccncc3)c12 [Compound 11]	1350 nM
O=C(NCCCn1ccnc1)c1cnccc1Nc1nc(-c2cc(Cl)ccc2F)nc2c1CCC2 [Compound 71]	844 nM
C[C@H](O)CNC(=O)c1cnccc1Nc1nc(-c2cc(Cl)ccc2F)nc2c1CCCC2 [Compound 57]	436 nM
CC1(C)Cc2nc(-c3cc(Cl)ccc3F)nc(Nc3ccncc3C(F)(F)F)c2C1 [Compound 61]	6250 nM

Compound	IC50
CNC(=O)c1cnccc1Nc1nc(-c2cc(Cl)ccc2F)nc2c1CCCC2 [Compound 40]	50.1 nM
Cc1noc2nc(-c3ccc(Cl)cc3)nc(Nc3ccncc3)c12 [Compound 17]	4650 nM
CCN(CC)CCNC(=O)c1cnccc1Nc1nc(-c2ccccc2F)nc2c1CCC2 [Compound 79]	5490 nM
O=C(NCCN1CCCC1)c1cnccc1Nc1nc(-c2cc(Cl)ccc2F)nc2c1CCC2 [Compound 75]	712 nM
CN1CCCC1CCNC(=O)c1cnccc1Nc1nc(-c2cc(Cl)ccc2F)nc2c1CCC2 (stereo not shown) [Compound 73]	309 nM
CC1(C)Cc2nc(-c3cc(Cl)ccc3F)nc(Nc3ccncc3C(N)=O)c2C1 [Compound 62, 4-[2-(5-Chloro-2-fluoro-phenyl)-6,6-dimethyl-6,7-dihydro-5H-cyclopentapyrimidin-4-ylamino]-nicotinamide]	205 nM
Cc1cnccc1Nc1nc(-c2cc(Cl)ccc2F)nc2c1CCCC2 [Compound 38, [2-(5-Chloro-2-fluorophenyl)-5,6,7,8-tetrahydroquinazolin-4-yl]-(3-methylpyridin-4-yl)-amine]	252 nM
Cc1cnccc1Nc1nc(-c2cc(Cl)ccc2F)nc2c1CC(C)(C)C2 [Compound 60, [2-(5-Chloro-2-fluoro-phenyl)-6,6-dimethyl-6.7-dihydro-5H-cyclopentapyrimidin-4-yl]-(3-methyl-pyridin-4-yl)-amine]	2420 nM
NC(=O)c1cnccc1Nc1nc(-c2cc(Cl)ccc2F)nc2c1CCC2 [Compound 21]	53 nM
Cc1cnccc1Nc1nc(-c2cc(Cl)ccc2F)nc2c1CCC2 [Compound 20]	93 nM
CC1CCc2nc(-c3cc(Cl)ccc3F)nc(Nc3ccncc3C(N)=O)c21 (stereo not shown) [Compound 46]	13 nM
CCN(CC)CCNC(=O)c1cnccc1Nc1nc(-c2cc(Cl)ccc2F)nc2c1CCCC2 [Compound 59]	77.9 nM
CNCCNC(=O)c1cnccc1Nc1nc(-c2cc(Cl)ccc2F)nc2c1CC(C)(C)C2 [Compound 66]	1250 nM
C[C@H](O)CNC(=O)c1cnccc1Nc1nc(-c2cc(Cl)ccc2F)nc2c1CCC2 [Compound 53]	417 nM
O=C(c1cnccc1Nc1nc(-c2cc(Cl)ccc2F)nc2c1CCC2)N1CCCC1 [Compound 37]	2240 nM
c1ccc(-c2nc(Nc3ccncc3)c3cc[nH]c3n2)cc1 [Compound 2, 4-(4-aminopyridyl)-2-phenyl pyrollo[2,3d]pyrimidine]	9400 nM
Fc1ccc(Cl)cc1-c1nc2c(c(Nc3ccncc3C(F)(F)F)n1)CCC2 [Compound 36]	170 nM
Cc1noc2nc(-c3cc(Cl)ccc3F)nc(Nc3ccncc3)c12 [Compound 8]	267 nM
O=C(NCCCN1CCCC1=O)c1cnccc1Nc1nc(-c2cc(Cl)ccc2F)nc2c1CCC2 [Compound 72]	6460 nM
CCOC(=O)c1cnccc1Nc1nc(-c2cc(Cl)ccc2F)nc2c1C(C)CC2 (stereo not shown) [Compound 48, 4-[2-(5-Chloro-2-fluoro-phenyl)-5-methyl-6,7-dihydro-5H-cyclopentapyrimidin-4-ylamino]-nicotinic acid ethyl ester]	262 nM
Fc1ccccc1-c1cc(Nc2ccncc2)n2ncnc2n1 [Compound 82]	8840 nM
Cc1cnccc1Nc1nc(-c2cc(Cl)ccc2F)nc2c1COC2 [Compound 33, [2-(5-Chloro-2-fluorophenyl)-5,7-dihydrofuro[3,4-d]pyrimidin-4-yl]-(3-methyl-pyridin-4-yl)-amine]	3100 nM
Cc1cnccc1Nc1nc(-c2cc(Cl)ccc2F)nc2c1CNCC2 [Compound 22]	6270 nM
C[C@H](O)CNC(=O)c1cnccc1Nc1nc(-c2cc(Cl)ccc2F)nc2c1CCC2 [Compound 52]	238 nM
CCOC(=O)c1cnccc1Nc1nc(-c2cc(Cl)ccc2F)nc2c1CCC2 [Compound 32]	6500 nM
Cc1cnccc1Nc1nc(-c2cc(Cl)ccc2F)nc2c1CCNC2 [Compound 23]	1180 nM
CC1CCc2nc(-c3cc(Cl)ccc3F)nc(Nc3ccncc3C(=O)O)c21 (stereo not shown) [Compound 49, 4-[2-(5-Chloro-2-fluorophenyl)-5-methyl-6,7-dihydro-5H-cyclopentapyrimidin-4-ylamino]-nicotinic acid]	85.3 nM
